Publication PMC10311245, “Novel leaderless bacteriocin geobacillin 6 from thermophilic bacterium Parageobacillus thermoglucosidasius” (Frontiers in Microbiology, 2023)
No end group written: not given here.

Tests used:
[1] = tested on: Geobacillus kaustophilus HTA 426; format: cell-based
Description: (§1) MICs of Geo6 were determined according to the method of [Wiegand et al. (2008)] with some modifications. An indicator strain sensitive to bacteriocin was grown overnight at 55°C in a thermoshaker. The next day it was inoculated (2–3%) into fresh medium and cultivated until OD reached 1–1.5. The culture was further diluted and adjusted to 1 × 10^6 CFU/ml. A 95 μl of the medium was mixed with 5 μl of Geo6 and serial two-fold dilutions of suspension were made with the medium. Next, diluted mixtures were dispersed (100 μl) in a 96-well plate. A volume of 100 μl of previously prepared cell suspension was dispersed and mixed with the diluted bacteriocin in every well on the plate. As a result, the final volume of suspension in the well containing diluted bacteriocin and bacteria cells was 200 μl and the final concentration of the bacteria culture in the well was 5 × 10^5 CFU/ml. For each experiment, three replicates were made in the plate. Wells with positive controls contained a mixture of medium (95 μl) and Geo6 (5 μl), and negative controls contained bacteria suspension (5 × 10^5 CFU/ml) in the medium (100 μl). The plate was placed into a bag to prevent medium evaporation and put into a box, which was incubated overnight at 55°C in a thermoshaker. The next day, the growth inhibition was evaluated in the wells of the plate.

[2] = tested on: Geobacillus lituanicus DSM 15325^T; format: cell-based
Description: as §1

[3] = tested on: Geobacillus thermodenitrificans DSM 465^T; format: cell-based
Description: as §1

[4] = tested on: Geobacillus thermoleovorans DSM 5366^T; format: cell-based
Description: as §1

[5] = tested on: Parageobacillus toebii DSM 14590^T; format: cell-based
Description: as §1

[6] = tested on: G. kaustophilus HTA 426^T; experiment: Live/dead assay (membrane integrity, SYTO9 and PI); format: cell-based, Geobacillus kaustophilus; conditions: 600 nM Geo6, 30 min, BHI, 55°C; fluorescence microscopy; red = damaged membrane
Description: An indicator strain G. kaustophilus HTA 426^T sensitive to bacteriocin was grown in BHI medium at 55°C till OD 0.5 was reached. Next, the bacteria culture was treated with 600 nM of Geo6 and further cultivated for 30 min. Then, the cell culture was centrifuged at 3000 ×g for 5 min and further washed two times with 0.9% NaCl solution (centrifuged at 3000 ×g for 5 min). After the last wash, cells were suspended in 0.9% NaCl solution and stained using LIVE/DEAD BacLight Bacterial Viability Kit (Invitrogen) containing SYTO9 and […] according to manufacturers’ recommendations. Cells were incubated in the dark at room temperature for 15 min. Next, cells were centrifuged at 3000 ×g for 5 min and washed two times with 0.9% NaCl solution (centrifuged at 3000 ×g for 5 min). Further, 10 μl of Geo6 treated cells and nontreated control cells suspensions were spotted onto objective slides and examined using a fluorescence microscope using filters FITC (480/500 nm) and Texas Red (490/635 nm).

[7] = Bacteriocin thermostability (activity by spot on a lawn assay after incubation); format: physicochemical; conditions: spot on a lawn read-out; for Antibacterial activity retained after heat treatment: two-fold dilutions
Description: […] After incubation, serial two-fold dilutions of samples were made using medium, and further antibacterial activity of bacteriocin was assessed by spot on a lawn assay.

[8] = Bacteriocin stability in different pH ranges (activity by spot on a lawn assay after incubation); format: physicochemical; conditions: pH range 3–11, 25 mM Britton-Robinson buffer, 1:20, room temperature 2 h, neutralized to pH 7; spot on a lawn read-out
Description: For evaluation of stability at different pH ranges, purified recombinant Geo6 was mixed with 25 mM Britton-Robinson buffer solutions ([Ebihara et al., 2016]) with different pH values in a ratio of 1:20. After incubation at room temperature for 2 h samples were neutralized with NaOH or HCl solutions to pH 7. Further, samples were diluted two-fold using a medium and assessed for antibacterial activity using spot on a lawn assay.

[9] = Thermal shift assay (differential scanning fluorimetry, SYPRO Orange); format: physicochemical; conditions: DSF, called inconclusive; for Melting temperature (Tm): 20–95°C, triplicate
Description: As an indicator of thermal denaturation in varying pH or other conditions a fluorescent SYPRO Orange dye (Invitrogen) that binds to hydrophobic parts of protein during its unfolding was used in this work. SYPRO Orange 50× stock solution was prepared by diluting 2.5 μl of 5,000× concentrate into 250 μl of deionized (DI) water. A volume of 2.5 μl of 50× SYPRO Orange was aliquoted into a white HardShell 96-well PCR plate (Bio-Rad). Different pH buffer solutions (25 mM Briton-Robinson, pH 3–11; [Bendikienė et al., 2004]) were added to aliquoted SYPRO Orange followed by adding an appropriately diluted solution of purified Geo6 into the wells at a final concentration of 0.25 nmol/ml (1.3 μg/ml). The final volume of the mixture was 25 μl. The negative control was 25 mM of Briton-Robinson buffer solutions in a range of pH 3 to 11, with 2.5 μl of SYPRO Orange. Lysozyme (final concentration of 100 μg/ml) diluted in 25 mM Briton-Robinson buffer (pH 5 and 6) and mixed with 2.5 μl of SYPRO Orange was used as a positive control. A curve experiment for DNA with the elimination of the initial denaturation step at 95°C was used. The melt curve temperature range was set from 20°C to 95°C in increments of 0.5°C for 5 s. Each experimental condition was prepared in triplicate. Thermal shift analysis or differential scanning fluorimetry (DSF) of Geo6 was performed in CFX Touch Real TIME PCR System (Bio-Rad) using CFX Manager (Bio-Rad) software.

B. campestris ATCC 43754 = conditions: ref Acedo et al., 2016; cited from earlier work
Description: (§2) For comparison, previous studies have shown that pallidocin, a glycocin-type bacteriocin produced by thermophilic bacteria A. pallidus strain 8, was active in the pM range against other thermophiles, and a 2.4 pM concentration of pallidocin inhibited the growth of thermophilic bacterium P. genomospecies 1 strain NUB36187 ([Kaunietis et al., 2019]). Other leaderless bacteriocins are active in the μM and nM ranges ([Fujita et al., 2007]; [Iwatani et al., 2007]) and have a broad spectrum of activity.

L. lactis ATCC 19257 = conditions: ref Acedo et al., 2016; cited from earlier work
Description: as §2

[10] = CD spectroscopy, aqueous buffers; reversible two-state conversion between helical and unfolded forms; ref Hammond et al., 2020; cited from earlier work
Description: A recent study using the CD spectroscopy method confirmed the formation of helical structures in epidermicin NI01 and aureocin A53 in aqueous buffers. […] Due to these interesting findings, we decided to employ a thermal shift assay, also known as differential scanning fluorimetry (DSF), to analyze the thermal denaturation of Geo6 under different pH ranges and temperatures. Additionally, to the best of our knowledge, this ...

B. coagulans JCM 2257^T = conditions: ref Iwatani et al., 2007; cited from earlier work
Description: as §2

Escherichia coli JM109 = conditions: ref Iwatani et al., 2007; cited from earlier work
Description: as §2

[11] = tested on: L. sakei subsp. sakei JCM 1157^T; conditions: ref Iwatani et al., 2007; cited from earlier work
Description: as §2

[12] = tested on: P. dextrinicus JCM 5887^T; conditions: ref Iwatani et al., 2007; cited from earlier work
Description: as §2

[13] = tested on: P. genomospecies 1 strain NUB36187; conditions: thermophilic bacterium; ref Kaunietis et al., 2019; cited from earlier work
Description: as §2

Substance: GMATFLRIVAQLSSKAAKWALDNKDKVLKWIRDGMAIDWIIDKINDIVG [Geo6, geobacillin 6]
- MIC [1]: 0.293 µM
- MIC [2]: 0.585 µM
- MIC [3]: 2.34 µM
- MIC [4]: 0.585 µM
- MIC [5]: 4.45 µM
- Membrane integrity (SYTO9/PI fluorescence of treated cells) [6]: all the cells exhibited red fluorescence
- Antibacterial activity retained after heat treatment ([7]; 60°C for 2 h): 100%
- Antibacterial activity retained after heat treatment ([7]; 70°C for 2 h): 100%
- Antibacterial activity retained after heat treatment ([7]; 95°C for 6 h): did not abolish its activity
- Antibacterial activity retained after heat treatment ([7]; 95°C for 6 h, listed as Geobacillin 6): 100%
- Antibacterial activity retained after heat treatment ([7]; 100°C for 2 h): 100%
- Antibacterial activity retained after incubation at room temperature ([7]; room temperature for 24 h): 100%
- Antibacterial activity retained after incubation at different pH [8]: 100%
- Melting temperature (Tm) ([9]; 25 mM Briton-Robinson buffer pH 8, 0.25 nmol/ml (1.3 μg/ml)): none
- Melting temperature (Tm) ([9]; 25 mM Briton-Robinson buffer pH 9, 0.25 nmol/ml (1.3 μg/ml)): 76.75±1.77 °C
- Melting temperature (Tm) ([9]; 25 mM Briton-Robinson buffer pH 10, 0.25 nmol/ml (1.3 μg/ml)): 76.5 °C
- Melting temperature (Tm) ([9]; 25 mM Briton-Robinson buffer pH 11, 0.25 nmol/ml (1.3 μg/ml)): 80.5±0.7 °C
- Melting temperatures (Tm), partial unfolding ([9]; range of pH 9–11, 20–95°C): 76.5–80.5 °C

Substance: aureocin A54 (MSWLNFLKYIAKYGKKAVSAAWKYKGKVLEWLNVGPTLEWVWQKLKKIAGL; UniProt Q8GPI4 1-51, looked up)
- MIC (B. campestris ATCC 43754): 2 µM
- MIC (L. lactis ATCC 19257): 0.25 µM

Substance: epidermicin NI01
- Denaturation temperature [10]: 60 °C

Substance: lacticin Q
- MIC (B. coagulans JCM 2257^T): 0.0016 µM
- Antibacterial activity (Escherichia coli JM109): No activity was detected
- MIC [11]: 0.0032 µM
- MIC [12]: 0.0073 µM

Substance: pallidocin
- Concentration that inhibited growth [13]: 2.4 pM
